Patent US20160081309A1, “FRUCTOBACILLUS AS A PROBIOTIC FOR HONEYBEES” (Indiana University Research & Technology Corporation, priority 2014, published 2016)

Tests used:
Fructobacillus sp. = assay: Antibiotic sensitivity test, soft agar overlay with antibiotic discs; assay type: cell-based; details: Fructobacillus soft MRS agar overlay, disc content 5-30 mcg as given per antibiotic; for Zone of Inhibition: BBL Sensi-Disc
Experimental: Evolutionary analyses were conducted in MEGA6 using the 16S rRNA gene sequences and using a Maximum Likelihood method based on the General Time Reversible Model with a gamma distribution, invariable sites and 100 bootstrap replicates (Tamura et al. (2013) Mol Biol Evol, 30:2725-2729). For antibiotic sensitivity tests, overnight cultures of Fructobacillus sp. were mixed with soft MRS agar and overlayed onto MRS plates onto which an antibiotic impregnated disc had been placed. Diameters of zones of inhibition were measured around each antibiotic disc using a ruler. Antibiotics used were BBL Sensi-Disc tetracycline 30 mcg, ampicillin with sulbactam 20 mcg, rifampin 5 mcg, ciprofloxacin 5 mcg, and vancomycin 30 mcg.
Honey bees are commonly prophylactically treated with oxytetracycline for the prevention of foulbrood diseases caused by the bacteria Melissococcus plutonius and Paenibacillus larvae. […] The bacterial strain's resistance to antibiotics was determined, as treatment might alter the abundance of Fructobacillus in the hive. Using soft agar overlays, Fructobacillus cultures were exposed to five different antibiotics (tetracycline, ampicillin (with sulbactam), rifampicin, ciprofloxacin, and vancomycin), and the resulting zones of inhibition were measured (Table 3). […] These two antibiotics are commonly used in agriculture.

Fructobacillus FJL = assay: Carbon source utilization assay (Biolog MT2 plates); assay type: cell-based; details: 2% carbohydrate, Biolog MT2, 30° C. aerobic; versus water-only controls, unpaired t-test p≦0.001
Experimental: The same Fructobacillus isolate as used for co-culture assays was grown for 72 hours in MRS broth at 30° C. under aerobic conditions. Cells were pelleted via centrifugation and the supernatant was removed. The pellet was resuspended in a buffer of 0.1M Tris-HCl (pH 6.5). This centrifugation and resuspension process was performed twice to ensure removal of all residual MRS. 15 μl of cell suspension was added to each well of a Biolog MT2 plate (Biolog Inc.). To this, 150 μl of 2% carbohydrate solutions were added to the wells, with each carbohydrate repeated in triplicate. Additionally, water control wells were established in triplicate, inoculated with cell suspension and filtered, autoclaved water. […] Plates were read via spectrophotometry at A590 immediately following inoculation in order to establish as baseline. Plates were incubated aerobically at 30° C., and A590 readings were taken every 24 hours. […] To assess whether a carbon source was utilized, absorbance readings from time points with peak absorbance were compared to absorbance of the initial time point. Absorbance in water control wells was subtracted from absorbance in carbohydrate containing wells. […] A carbon source was determined to have been utilized by Fructobacillus if the difference was statistically significant with a p-value of 0.001 or lower.

Row | SMILES | Zone of Inhibition (Fructobacillus sp.) [mm] | Interpretation (antibiotic sensitivity) (Fructobacillus sp.) | Utilization of carbon source by Fructobacillus (Fructobacillus FJL)
1 | O=C(O)c1cn(C2CC2)c2cc(N3CCNCC3)c(F)cc2c1=O [Ciprofloxacin] | 9 | Resistant | 
2 | O=C(CO)[C@@H](O)[C@H](O)[C@H](O)CO [fructose] |  |  | capable of utilizing
3 | CN(C)[C@@H]1C(O)=C(C(N)=O)C(=O)[C@@]2(O)C(O)=C3C(=O)c4c(O)cccc4[C@@](C)(O)[C@H]3C[C@@H]12 [Tetracycline] | 32 |  | 
4 | CN[C@H](CC(C)C)C(=O)N[C@H]1C(=O)N[C@@H](CC(N)=O)C(=O)N[C@H]2C(=O)N[C@H]3C(=O)N[C@H](C(=O)N[C@H](C(=O)O)c4cc(O)cc(O)c4-c4cc3ccc4O)[C@H](O)c3ccc(c(Cl)c3)Oc3cc2cc(c3O[C@@H]2O[C@H](CO)[C@@H](O)[C@H](O)[C@H]2O[C@H]2C[C@](C)(N)[C@H](O)[C@H](C)O2)Oc2ccc(cc2Cl)[C@H]1O [Vancomycin] | 0 | Resistant | 
5 | CO[C@H]1/C=C/O[C@@]2(C)Oc3c(C)c(O)c4c(O)c(c(/C=N/N5CCN(C)CC5)c(O)c4c3C2=O)NC(=O)/C(C)=C\C=C\[C@H](C)[C@H](O)[C@@H](C)[C@@H](O)[C@@H](C)[C@H](OC(C)=O)[C@@H]1C [Rifampin] | 25 | Susceptible | 
